Laboratory results taken from publication PMC8670521, “Identification and characterization of an atypical Gαs-biased β2AR agonist that fails to evoke airway smooth muscle cell tachyphylaxis” (Proceedings of the National Academy of Sciences of the …, 2021).
Like-named read-outs stand apart in the source and are kept apart here.

Tests used:
[1] = molecular target: T1, β2AR tagged at its carboxyl terminus (PathHunter ECA) (Homo sapiens, UniProt P07550); test: β-arrestin2 recruitment, PathHunter enzyme complementation; assay type: cell-based; details: […] min, […] °C, CHO cells
T1 construct: gene ADRB2; C-terminal complementary β-galactosidase fragment tag; DiscoverX PathHunter CHO cells co-expressing β-arrestin2 fused to fragment-deficient β-galactosidase (read-out)

[2] = molecular target: T2, human β2AR (β2-adrenergic receptor) (Homo sapiens, UniProt P07550); test: cAMP accumulation, competitive immunoassay; assay type: cell-based
T2 construct: gene ADRB2; full-length receptor cDNA stably expressed in CHW-1102 (CHW-β2) cells, ~2,000 fmol/mg
Excerpt: cAMP accumulation, competitive immunoassay on human β2AR (β2-adrenergic receptor)

[3] = agonist, […] min, […] °C, IBMX […], whole CHW-β[…] cells

T2 sequence (P07550 whole entry): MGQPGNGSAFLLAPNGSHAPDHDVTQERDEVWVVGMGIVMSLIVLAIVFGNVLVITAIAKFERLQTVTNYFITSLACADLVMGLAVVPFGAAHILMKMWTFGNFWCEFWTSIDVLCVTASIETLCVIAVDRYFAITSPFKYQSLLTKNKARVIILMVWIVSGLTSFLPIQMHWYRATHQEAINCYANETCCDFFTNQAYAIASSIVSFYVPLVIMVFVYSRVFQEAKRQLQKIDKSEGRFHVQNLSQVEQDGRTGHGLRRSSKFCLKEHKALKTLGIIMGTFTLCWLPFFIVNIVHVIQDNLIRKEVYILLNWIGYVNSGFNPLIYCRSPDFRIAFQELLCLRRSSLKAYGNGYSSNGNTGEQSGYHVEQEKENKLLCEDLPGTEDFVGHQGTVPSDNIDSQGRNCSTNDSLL
T1 sequence (P07550 whole entry, the tested form may be a part): as the sequence (P07550 whole entry) above

| SMILES | β-arrestin2 recruitment, PathHunter enzyme complementation [1] | EC50 [2] [µM] | EC50 [2, 3] [µM] |
| --- | --- | --- | --- |
| COc1ccc(CC2=N[C@@H](CCCCN3C[C@H](Cc4ccc(O)cc4)N(CCCCC4CCCCC4)C3=O)CN2)cc1 [C1-S] | lack of a response to C1-S in the β-arrestin ECA | 4.23 ± 1 | – |
| COc1ccc(CC2=N[C@@H](CCCCN3C[C@H](Cc4ccc(O)cc4)N(CCCCC4CCCCC4)C3=O)CN2)cc1OC [C2-S] | – | – | 6.67 ± 2.01 |
| CCOc1ccc(CC2=N[C@@H](CCCCN3C[C@H](Cc4ccc(O)cc4)N(CCCCC4CCCCC4)C3=O)CN2)cc1 [C3-S] | – | – | 4.31 ± 1.69 |
| CC(C)CC1=N[C@@H](CCCCN2C[C@H](Cc3ccc(O)cc3)N(CCCCC3CCCCC3)C2=O)CN1 [C4-S] | – | – | 3.52 ± 0.52 |
